# Test results as given in patent US20120276012A1, “Method of Treatment and Screening Method” (ISIS INNOVATION LIMITED, priority 2009, published 2012).
# Where a chain is given by its changes, count along the chain named.
# Columns and labels:
# [1] = target: T1, creatine transporter (CrT) (Homo sapiens, UniProt P48029); assay: 14C-labelled creatine uptake in fibroblast 3T3 cells that stably express the CrT; type: cell-based; details: 3T3 cells stably expressing CrT; increasing extracellular β-GPA concentration; 14C-creatine, 37° C. for 60 min; FIG. 5B
# T1 construct: expressed in transfected cells
# T1 sequence (P48029 1-635): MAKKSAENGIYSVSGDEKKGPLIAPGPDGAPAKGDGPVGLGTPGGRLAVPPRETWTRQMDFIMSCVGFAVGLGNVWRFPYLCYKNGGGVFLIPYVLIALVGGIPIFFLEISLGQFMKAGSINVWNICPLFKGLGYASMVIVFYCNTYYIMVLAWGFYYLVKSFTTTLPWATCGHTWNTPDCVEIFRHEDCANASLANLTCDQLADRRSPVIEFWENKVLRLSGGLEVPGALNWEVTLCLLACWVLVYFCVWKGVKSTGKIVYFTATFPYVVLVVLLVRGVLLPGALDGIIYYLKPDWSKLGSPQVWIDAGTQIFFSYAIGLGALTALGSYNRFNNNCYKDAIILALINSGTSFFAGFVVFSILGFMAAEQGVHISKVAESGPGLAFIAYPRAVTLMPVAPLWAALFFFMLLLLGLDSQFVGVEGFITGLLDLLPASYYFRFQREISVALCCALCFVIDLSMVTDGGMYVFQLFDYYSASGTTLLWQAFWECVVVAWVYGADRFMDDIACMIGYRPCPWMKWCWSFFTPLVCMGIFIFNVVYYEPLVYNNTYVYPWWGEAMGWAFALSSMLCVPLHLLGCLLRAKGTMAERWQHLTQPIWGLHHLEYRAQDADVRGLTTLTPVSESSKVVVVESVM
# Procedure: We have developed a sensitive and specific assay for measuring ^14C-labelled Cr uptake in cell culture using fibroblast 3T3 cells that stably express the CrT. Cells (1×10^5 cells) were plated into 24-well-plates, and incubated for 18 hours to form monolayers. […] After incubation at 37° C. for 60 min (95% air, 5% CO2), media was aspirated, cells solubilised and lysed using PBS/TritonX-100. A scintillation counter measures signal attributed to intracellular radiolabel, with Cr uptake estimated against known standards. Control wells contain no test compound to measure normal background uptake, and control wells containing only cells are used for protein quantification.
# [2] = target: T2, creatine transporter (CrT) (Mus musculus, UniProt Q8VBW1); assay: 14C-labelled creatine uptake in HL-1 cells expressing endogenous CrT; type: cell-based; details: HL1 cells incubated with 250 μM creatine; increasing extracellular β-GPA concentration; FIG. 5B
# T2 construct: these cells express endogenous CrT; endogenous in cells; host or cells: HL-1 cells (mouse atrial cardiomyocyte-like)
# T2 sequence (Q8VBW1 1-635): T1 sequence (P48029 1-635) with A24V, P25S, V38A, T42A, G223T, A368T, V539I
# Procedure: Cells (1×10^5 cells) were plated into 24-well-plates, and incubated for 18 hours to form monolayers. Each well was spiked with 10 μl (37 kBq) ^14C-creatine, 500 μM of non-radiolabelled Cr, and 30 μM of test compound (β-guanidinopropionic acid) (performed in triplicate). After incubation at 37° C. for 60 min (95% air, 5% CO2), media was aspirated, cells solubilised and lysed using PBS/TritonX-100. A scintillation counter measures signal attributed to intracellular radiolabel, with Cr uptake estimated against known standards. Control wells contain no test compound to measure normal background uptake, and control wells containing only cells are used for protein quantification. […] HL-1 cells that are derived from mouse atrial tumour cells and have a beating cardiomyocyte-like phenotype. […] Changes in creatine uptake were measured using the ^14C screen described above.
smiles,measurement,setting,value
"N=C(N)NCCC(=O)O [β-GPA, β-guanidinopropionic acid]",creatine uptake,[1],dose-dependent inhibition of creatine uptake
same,creatine uptake,[2],dose-dependent inhibition of creatine uptake
